Test results reported in patent US6046043A, “Method for the conversion of carbonyl compounds to their β-unsaturated derivatives using molecular oxygen as the oxidant” (The Regents of the University of Michigan, priority 1998, dated 2000).
pKd: −log10 of the molar value.

Experiments:
Old Yellow Enzyme = target: T1, Old Yellow Enzyme (Saccharomyces pastorianus, UniProt Q02899); test: p-Cl-phenol binding to native Old Yellow Enzyme (charge transfer complex); design: species or system Brewer's Bottom Yeast
T1 construct: recombinant OYE I (pET-3b, E. coli) or enzyme isolated from brewer's bottom yeast (mix of close OYE isoforms)
T1 sequence (Q02899 2-400): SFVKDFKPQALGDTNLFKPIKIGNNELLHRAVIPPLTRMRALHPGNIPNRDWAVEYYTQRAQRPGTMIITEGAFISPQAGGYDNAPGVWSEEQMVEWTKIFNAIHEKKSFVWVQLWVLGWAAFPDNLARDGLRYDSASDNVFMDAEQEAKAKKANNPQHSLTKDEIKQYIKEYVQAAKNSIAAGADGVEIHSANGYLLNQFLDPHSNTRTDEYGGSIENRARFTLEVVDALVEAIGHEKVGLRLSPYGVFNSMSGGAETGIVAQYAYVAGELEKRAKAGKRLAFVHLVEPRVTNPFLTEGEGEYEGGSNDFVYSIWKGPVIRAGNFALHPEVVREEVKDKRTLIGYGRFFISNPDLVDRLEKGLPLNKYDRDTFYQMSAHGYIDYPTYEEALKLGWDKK
Protocol: The apoprotein of Old Yellow Enzyme was prepared and reconstituted with 8-CN-8-demethyl-flavin mononucleotide as described above. […] Native enzyme binds p-Cl-phenol with a Kd of~1 μM and has a maximum of 645 nm for the charge transfer absorption band. The 115 nm blue shift thus falls in line with the 170 mV more positive potential compared to that of the native flavin.

8-CN-FMN-OYE = target: T2, 8-CN-FMN-OYE (Saccharomyces pastorianus, UniProt Q02899); test: Oxidation of saturated carbonyl substrates by the catalyst with molecular oxygen (GC/MS); format: biochemical
T2 construct: made in house; host or cells: Escherichia coli (plasmid pET-3b)
T2 sequence (Q02899 whole entry): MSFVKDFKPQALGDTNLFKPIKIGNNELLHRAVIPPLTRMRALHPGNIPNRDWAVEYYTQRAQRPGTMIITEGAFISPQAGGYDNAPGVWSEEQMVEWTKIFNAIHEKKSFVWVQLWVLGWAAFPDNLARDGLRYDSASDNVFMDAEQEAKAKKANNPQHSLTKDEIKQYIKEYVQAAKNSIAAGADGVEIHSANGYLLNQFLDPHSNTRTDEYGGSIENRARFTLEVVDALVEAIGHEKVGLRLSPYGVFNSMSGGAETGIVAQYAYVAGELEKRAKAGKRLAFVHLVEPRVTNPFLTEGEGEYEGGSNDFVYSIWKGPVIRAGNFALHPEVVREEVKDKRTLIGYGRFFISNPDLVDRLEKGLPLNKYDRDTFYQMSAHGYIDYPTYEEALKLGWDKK
Protocol: Two ml of 10 mM solution of hydrocinnamaldehyde (C6 H5 --CH2 --CH2 --CHO) in 100 mM sodium pyrophosphate buffer, pH 8.5 was taken in a 5 ml test tube with a small magnetic stir bar at room temperature. The catalyst, as a concentrated solution in the same buffer, was added to the above solution so that final concentration of the catalyst is 10 μM. […]
When and wherever side reactions were observed due to hydrogen peroxide (which is produced during the oxidation), 5 μl of catalase (1 mg/ml) was added to the reaction mixture prior to the addition of the catalyst as a hydrogen peroxide scavenger.
The racemic 3-phenyl-butyraldehyde was subjected to typical oxidation reaction with the catalytic system of the present invention. […] It can be concluded, in analogy to the 3-Me-cyclopentanone reaction, that the oxidation of S-enantiomer only catalyzed by the catalyst leaving the R-enantiomer intact as hydrogen at the asymmetric center lies in unfavorable geometry. This reaction once again highlights the potential of the present catalytic system in resolving racemic carbonyl compounds.

[1] = Redox potential of flavin cofactor; format: physicochemical

## Oc1ccc(Cl)cc1 [p-Cl-phenol]
Old Yellow Enzyme
  pKd: ~6.00

## O=CCCc1ccccc1 [hydrocinnamaldehyde]
8-CN-FMN-OYE; 10 mM substrate, 10 μM catalyst, pH 8.5, room temperature, 3 hours, GC/mass spectral analysis
  conversion of the substrate to cinnamaldehyde: complete conversion

## CC(CC=O)c1ccccc1 (racemic) [3-phenyl-butyraldehyde]
8-CN-FMN-OYE; racemic substrate, 36 hours-48 hours, GC/MS
  substrate reacted: ~ 50%

## Cc1cc2nc3c(=O)[nH]c(=O)nc-3n(C[C@H](O)[C@H](O)[C@H](O)COP(=O)(O)O)c2cc1C#N [8-CN-FMN, 8-CN-8-demethyl-flavin mononucleotide]
[1]
  redox potential: -38 mV
[1]; difference versus FMN
  redox potential positive to the native cofactor, FMN: about 170 mV
